Measurements taken from article PMC9356275, “A quantitative high-throughput screen identifies compounds that lower expression of the SCA2-and ALS-associated gene ATXN2” (The Journal of Biological Chemistry, 2022).
Read-outs that look alike come from different tables or passages of the source.

Columns and labels:
Assay type in all cases: cell-based, human
ATXN2-luc [1] = experiment: MSSR hit retest / multiconcentration testing: ATXN2-luc luciferase assay in H2 cells (1 and 10 μM); settings: for H2&S1 ave luc 1uM: 1 uM compound; for H2&S1 ave luc 10uM: 10 uM compound
ATXN2-luc [2] = experiment: MSSR pilot screen: ATXN2-luc luciferase assay (Bright-Glo) in H2 cells, single 10 μM dose; settings: for SD from mean (ATXN2-luc, Z-score): H2 cells, single dose (title: 10 μM compound), overnight; for ¦Score/1SD¦: absolute score divided by 1SD (0.891 or 0.9)
ATXN2-luc [3] = experiment: MSSR hit retest: ATXN2-luc luciferase assay, average of H2 and S1 cells (1 and 10 uM); parameters: H2&S1 ave luc 1uM / H2&S1 ave luc 10uM: scale not given here; settings: for activity at 1 µM: read-out: H2&S1 ave luc 1uM; for H2&S1 ave luc 10uM: head line r4 20 uM compound
Excerpt: (§1) Supplement mmc2.xlsx, sheet "43 annotated compounds"

H2 and S1 cells = experiment: Paired MTT viability assay, average of H2 and S1 cells (1 and 10 uM); parameters: H2&S1 ave MTT 1uM / H2&S1 ave MTT 10uM: unit not given here; settings: for viability at 1 µM / viability at 10 µM: Homo sapiens
Excerpt: as §1

ATXN2-luc [4] = experiment: NCATS qHTS (LOPAC pilot, primary and confirmation): ATXN2-luc in S2 cells, 1536-well, Steady-Glo; settings: LOPAC library screening optimization; for AC50: Homo sapiens
Method: We next performed a pilot screen assay to optimize the 1536-well qHTS using S2 cells. […] Cytotoxicity was determined using a multiplexed viability assay (CellTiter-Fluor, a fluorescence-based viability assay using Gly-Phe-7-amino-4-trifluoromethylcoumarin substrate).
CellTiter-Fluor was used to determine compound effect on cell viability, and Steady-Glo was used to measure luciferase in a multiplexed assay.
The primary assay was conducted at the NCATS NIH Chemical Genomics Center laboratory. About 4 μl of S2 cell suspension in phenol red–free DMEM was dispensed into wells of 1536-well assay plates. […] Next, SteadyGlo luciferase substrate detection reagent (3 μl) was added to each well and incubated for an additional 5 min at room temperature. Luminescence was then measured on the ViewLux imager equipped with clear filters using a 2 s exposure. All screening operations were performed on a fully integrated robotic system (Kalypsys) containing one RX-130 and two RX-90 anthropomorphic robotic arms (Stäubli). Vehicle-only plates, with DMSO being pin-transferred to columns 5 to 48, were inserted uniformly at the beginning and the end of each library in order to monitor and record any shifts in assay performance.

[5] = luciferase, average of H2 and S1 cells expressing ATXN2-luc, rescreen
[6] = pilot screen at 10 µM compound, H2 cells expressing ATXN2-luc
[7] = luciferase assay, average of H2 and S1 cells (both ATXN2-luc), rescreen from plated libraries
[8] = pilot screen, H2 cells expressing ATXN2-luc, single dose printed as 10 μM compound
[9] = Homo sapiens, read-out: H2&S1 ave luc 10uM
[10] = read-out: H2&S1 ave MTT 1uM, 1 uM compound
[11] = read-out: H2&S1 ave MTT 10uM, 10 uM compound
[12] = 1 uM compound, average of H2 and S1 cells
[13] = head line r3 10uM, average of H2 and S1 cells

## CC(N/C(=N\C#N)Nc1ccncc1)C(C)(C)C (stereo not drawn)
ATXN2-luc [1]; [5]
  H2&S1 ave luc 1uM: 117
ATXN2-luc [2]
  SD from mean (ATXN2-luc, Z-score): -4.875 SD
ATXN2-luc [2]; pilot screen
  SD from mean (pilot screen): -4.875 SD
  ¦Score/1SD¦: 5.47
ATXN2-luc [2]; [6]
  SD from mean (pilot screen): -4.875
ATXN2-luc [3]; Homo sapiens, 1 uM compound, average of H2 and S1 cells
  activity at 1 µM: 117%
ATXN2-luc [3]; Homo sapiens, head line r3 10uM, average of H2 and S1 cells, read-out: H2&S1 ave luc 10uM
  activity at 10 µM: 17%
H2 and S1 cells; 1 uM compound, read-out: H2&S1 ave MTT 1uM
  viability at 1 µM: 107%
H2 and S1 cells; 10 uM compound, read-out: H2&S1 ave MTT 10uM
  viability at 10 µM: 51.5%

## CCCCCCCCCOc1ccc2[nH]cc(CCN)c2c1 [5-Nonyloxytryptamine]
ATXN2-luc [1]; [7]
  H2&S1 ave luc 1uM: 111
ATXN2-luc [2]
  SD from mean (ATXN2-luc, Z-score): -3.607 SD
ATXN2-luc [2]; pilot screen
  SD from mean (pilot screen): -3.607 SD
  ¦Score/1SD¦: 4.01
ATXN2-luc [2]; [8]
  SD from mean (pilot screen): -3.607
ATXN2-luc [3]; Homo sapiens
  activity at 1 µM: 111%
ATXN2-luc [3]; [9]
  activity: 4.61%
H2 and S1 cells; [10]
  viability at 1 µM: 114%
H2 and S1 cells; [11]
  viability at 10 µM: 23.7%

## C/C1=C2/[N-][C@H]([C@H](CC(N)=O)[C@@]2(C)CCC(=O)NC[C@@H](C)OP(=O)([O-])O[C@H]2[C@@H](O)[C@@H](n3cnc4cc(C)c(C)cc43)O[C@@H]2CO)[C@]2(C)N=C(/C(C)=C3N=C(/C=C4N=C1[C@@H](CCC(N)=O)C\4(C)C)[C@@H](CCC(N)=O)[C@]\3(C)CC(N)=O)[C@@H](CCC(N)=O)[C@]2(C)CC(N)=O.[Co] [COBALAMINE]
ATXN2-luc [1]; [5]
  H2&S1 ave luc 1uM: 126
  H2&S1 ave luc 10uM: 109
ATXN2-luc [2]
  SD from mean (ATXN2-luc, Z-score): -5.111 SD
ATXN2-luc [2]; pilot screen
  SD from mean (pilot screen): -5.111 SD
  ¦Score/1SD¦: 5.68
ATXN2-luc [2]; [6]
  SD from mean (pilot screen): -5.111
ATXN2-luc [3]; [12]
  H2&S1 ave luc 1uM: 126
ATXN2-luc [3]; [13]
  H2&S1 ave luc 10uM: 109
H2 and S1 cells; 1 uM compound
  H2&S1 ave MTT 1uM: 115.867
H2 and S1 cells; 10 uM compound
  H2&S1 ave MTT 10uM: 108.02

## CC[C@H]1CN2CCc3cc(OC)c(OC)cc3[C@@H]2C[C@@H]1C[C@H]1NCCc2cc(O)c(OC)cc21.Cl.Cl.O.O.O.O.O.O.O [Cephaeline dihydrochloride heptahydrate]
ATXN2-luc [1]; [5]
  H2&S1 ave luc 1uM: 16
  H2&S1 ave luc 10uM: 17
ATXN2-luc [2]
  SD from mean (ATXN2-luc, Z-score): -4.055 SD
ATXN2-luc [2]; pilot screen
  SD from mean (pilot screen): -4.055 SD
  ¦Score/1SD¦: 4.55
ATXN2-luc [2]; [6]
  SD from mean (pilot screen): -4.055
ATXN2-luc [3]; [12]
  H2&S1 ave luc 1uM: 16
ATXN2-luc [3]; [13]
  H2&S1 ave luc 10uM: 17
H2 and S1 cells; 1 uM compound
  H2&S1 ave MTT 1uM: 59.1374
H2 and S1 cells; 10 uM compound
  H2&S1 ave MTT 10uM: 62.1025

## CO[C@H]1[C@@H](O)[C@@H](C)O[C@@H](O[C@H]2CC[C@]3(C)[C@H]4CC[C@]5(C)[C@@H](C6=CC(=O)OC6)CC[C@]5(O)[C@@H]4CC[C@]3(O)C2)[C@@H]1O [EMICYMARIN]
ATXN2-luc [1]; [7]
  H2&S1 ave luc 1uM: 115
  H2&S1 ave luc 10uM: 31
ATXN2-luc [2]
  SD from mean (ATXN2-luc, Z-score): -3.080 SD
ATXN2-luc [2]; pilot screen
  SD from mean (pilot screen): -3.080 SD
  ¦Score/1SD¦: 3.42
ATXN2-luc [2]; [8]
  SD from mean (pilot screen): -3.080
ATXN2-luc [3]; [12]
  H2&S1 ave luc 1uM: 115
ATXN2-luc [3]; [13]
  H2&S1 ave luc 10uM: 31
H2 and S1 cells; 1 uM compound
  H2&S1 ave MTT 1uM: 111.923
H2 and S1 cells; 10 uM compound
  H2&S1 ave MTT 10uM: 53.425

## C[C@H]1O[C@@H](O[C@H]2CC[C@]3(C=O)[C@H]4CC[C@]5(C)[C@@H](C6=CC(=O)OC6)CC[C@]5(O)[C@@H]4CC[C@]3(O)C2)C[C@H](O)[C@@H]1O [Helveticoside]
ATXN2-luc [4]; logarithm of AC50 (negative values), read-out: Log AC50 (converted)
  AC50: 3.55 µM
ATXN2-luc [4]; read-out: AC50
  AC50: 3.55 µM
ATXN2-luc [4]; curve-fit parameter
  Efficacy: -86.9163
  Inf Activity: -84.4727
ATXN2-luc [2]
  SD from mean (ATXN2-luc, Z-score): -2.733 SD
ATXN2-luc [2]; pilot screen
  SD from mean (pilot screen): -2.733 SD
  ¦Score/1SD¦: 3.07
ATXN2-luc [2]; [8]
  SD from mean (pilot screen): -2.733
ATXN2-luc [3]; Homo sapiens
  activity at 1 µM: 118%
ATXN2-luc [3]; [9]
  activity: 41%
H2 and S1 cells; [10]
  viability at 1 µM: 99%
H2 and S1 cells; [11]
  viability at 10 µM: 37.1%

## CNC1CC(c2ccc(Cl)c(Cl)c2)c2ccccc21 (stereo not drawn) [Indatraline]
ATXN2-luc [1]; [7]
  H2&S1 ave luc 1uM: 107
ATXN2-luc [2]; pilot screen
  SD from mean (pilot screen): -3.071 SD
  ¦Score/1SD¦: 3.41
ATXN2-luc [2]; [8]
  SD from mean (pilot screen): -3.071
ATXN2-luc [3]; Homo sapiens
  activity at 1 µM: 107%
ATXN2-luc [3]; [9]
  activity: 5.53%
H2 and S1 cells; [10]
  viability at 1 µM: 117%
H2 and S1 cells; [11]
  viability at 10 µM: 13.5%

## CS(=O)(=O)Nc1ccc(Cc2noc(-c3ccc4[nH]cc(CCN)c4c3)n2)cc1 [L-694 247]
ATXN2-luc [1]; [7]
  H2&S1 ave luc 1uM: 110
  H2&S1 ave luc 10uM: 6
ATXN2-luc [2]
  SD from mean (ATXN2-luc, Z-score): -3.156 SD
ATXN2-luc [2]; pilot screen
  SD from mean (pilot screen): -3.156 SD
  ¦Score/1SD¦: 3.51
ATXN2-luc [2]; [8]
  SD from mean (pilot screen): -3.156
ATXN2-luc [3]; [12]
  H2&S1 ave luc 1uM: 110
ATXN2-luc [3]; [13]
  H2&S1 ave luc 10uM: 6
H2 and S1 cells; 1 uM compound
  H2&S1 ave MTT 1uM: 107.272
H2 and S1 cells; 10 uM compound
  H2&S1 ave MTT 10uM: 16.3621
